Results published in patent US12071624B2, “Antisense oligonucleotide targeting ARL4C molecule, and nucleic acid drug using antisense oligonucleotide” (OSAKA UNIVERSITY, priority 2018, dated 2024).
[AmNA] = 2',4'-bridged nucleic acid with N-methyl amide bridge (AmNA); d = 2'-deoxy (DNA)

Legend:
HCT116 cells = experiment: Cell migration assay in HCT116 cells; assay type: cell-based; details: HCT116 cells transfected at 25 nM
Experimental: (§1) HLE cells, HCT116 cells, and A549 cells were transfected with 25 to 50 nM ASO and 10 to 20 nM siRNA using Lipofectamine 3000 (Invitrogen, Carlsbad, CA, USA) or RNAiMAX (Invitrogen). Transfected cells were used in the experiments 36 to 48 hours after the end of the transfection.
(§2) Cell migration assays and quantitative real-time PCR analyses were performed according to the methods reported by Fujii S et al. (Oncogene 2015; 34: 4834-44).
In addition, HCT116 cells were transfected with control ASO, ASO-1316 and ASO-3223 at 25 nM, and a cell migration assay was carried out; the results are shown in (e) of FIG. 3.

PIK3CD mRNA = PIK3CD mRNA amount by real-time PCR in HLE cells; assay type: cell-based, human; details: HLE cells transfected with ASO at 25 nM
Experimental: as §1, §2
HLE cells were treated with 25 μM SecinH3 (inhibitor of Arf nucleotide-binding site opener (ARNO)) or 50 μM NSC23766 (Rac inhibitor), and the amount of PIK3CD mRNA was measured by real-time PCR; the results are shown in (c) of FIG. 5.
HLE cells were transfected with control ASO, ASO-1316, and ASO-3223 at 25 nM, and the PIK3CD mRNA amount was measured by real-time PCR; the results are shown in (g) of FIG. 5. In addition, an anti-phosphorylated AKT (pAKT S473) antibody and an anti-AKT antibody as probes were caused to act on cell lysates of HLE cells transfected with control ASO, ASO-1316, and ASO-3223; the results are shown in (h) of FIG. 5.

FBXL19 mRNA = experiment: Off-target gene mRNA by real-time PCR in HLE cells (FBXL19); assay type: cell-based, human; details: HLE cells transfected at 25 nM
Experimental: Potential off-target genes in ARL4C ASO (hARL4C ASO-1316-AmNA [15-mer] (ARL4C ASO-1316) and hARL4C-3223-AmNA [19-mer] (ARL4C ASO-3223)) were identified by using database “Human Genomic plus Transcript (Human G+T)” (Build 2.7.1) as well as basic local alignment search tools (BLAST+programs) using MegaBlast algorithm.
as §2
Four genes of neurolysin (NLN), sapiens F-box and leucine-rich repeat protein 19 (FBXL19), keratin-associated protein 15-1 (KRTAP15-1), and sialic acid binding Ig-like lectin 6 (SIGLEC6) were identified as candidates for off-target genes of ASO-1316 and ASO-3223 by in silico analysis. HLE cells were transfected with ASO-1316 and ASO-3223 at 25 nM each, and mRNA amounts of NLN and FBXL19 were measured by real-time PCR; the results are shown in (d) of FIG. 3. […] In addition, KRTAP15-1 and SIGLEC6 were only slightly expressed in the HLE cells (data not shown).

[1] = test system: nuclear localization of YAP in A549 cells; experiment: Anti-YAP/TAZ antibody staining in A549 cells; assay type: cell-based, human; details: A549 cells transfected at 25 nM
Experimental: as §1
(§3) HLE cells or A549 cells were transfected with control ASO, ASO-1316, and ASO-3223 at 25 nM, and were stained with an anti-YAP/TAZ antibody; the results are shown in (c) of FIG. 6.

[2] = test system: nuclear localization of YAP in HLE cells; experiment: Anti-YAP/TAZ antibody staining in HLE cells; assay type: cell-based; details: HLE cells transfected at 25 nM
Experimental: as §1, §3

HLE cells = experiment: Cell migration assay in HLE/GFP and HLE/ARL4C-GFP cells; assay type: cell-based; details: HLE/GFP or HLE/ARL4C-GFP cells transfected at 25 nM
Text: HLE cells allowing for the stable expression of GFP (HLE/GFP cells), HLE cells allowing for the stable expression of ARL4c-GFP with GFP fused to the C-terminal side (HLE/ARL4C-GFP cells, i.e., cells in which ARL4C-GFP is transduced and stably expressed), HCT116 cells allowing for the stable expression of luciferase (HCT116/Luc cells), A549 cells allowing for the stable expression of luciferase (A549/Luc cells), and S2-CP8 cells allowing for the stable expression of luciferase (S2-CP8/Luc cells) were produced using lentivirus according to the method reported by Matsumoto S et al. (EMBO J 2014; 33: 702-18) and Fujii S et al. (Oncogene 2015; 34: 4834-44). In addition, ARL4C-GFP is ARL4C with GFP fused thereto.
as §1
Cell migration assays and quantitative real-time PCR analyses were performed according to the methods reported by Fujii S et al. (Oncogene 2015; 34: 4834-44). […]

| Substance | cell migration (HCT116 cells) | PIK3CD mRNA amount / PIK3CD expression (PIK3CD mRNA) | FBXL19 mRNA amount (off-target) (FBXL19 mRNA) | nuclear localization of YAP [1] | nuclear localization of YAP [2] | cell migration (HLE cells) |
| --- | --- | --- | --- | --- | --- | --- |
| ASO-1316: 15-mer AmNA/phosphorothioate ASO targeting ARL4C, base sequence SEQ ID NO: 1 gcatacctcaggtaa; Table 1 SEQ ID NO 13 (antisense GCATACCTCAGGTAA; AmNA and phosphorothioate modified, pattern not given here) | suppress the migration of HCT116 cells | suppressing PIK3CD expression | did not significantly affect the expression | inhibited the nuclear localization of YAP | did not affect the nuclear localization of YAP | suppress the migration of HLE cells |
| ASO-3223: 19-mer ARL4C ASO of Table 1, SEQ ID NO 55 (antisense NNNGGTTACAGTATTTNNC; sugars from the 5' end [AmNA]3 d13 [AmNA]2 d1, backbone, methylation of C and the base at N not given here; further chemistry not fully specified) | suppress the migration of HCT116 cells | suppressing PIK3CD expression | did not significantly affect the expression | inhibited the nuclear localization of YAP | did not affect the nuclear localization of YAP | suppress the migration of HLE cells |
